Measured values: patent publication US6339042B1, “Herbicidal N-cyclohexadienyl heteroaryloxyacetamides” (American Cyanamid Co., priority 1999, dated 2002)

Tests used:
Apera spica venti [1] = assay: Pre-emergence herbicidal evaluation, APESV; assay type: in vivo; conditions: three weeks after treatment
Source text: (§1) The treated pots are then placed on greenhouse benches, watered and cared for in accordance with conventional greenhouse procedures.

Alopecurus myosuroides [2] = assay: Pre-emergence herbicidal evaluation, ALOMY; assay type: in vivo; conditions: three weeks after treatment
Source text: as §1

Apera spica venti [3] = assay: Post-emergence herbicidal evaluation, APESV; conditions: three weeks after treatment
Glycine max [4] = assay: Post-emergence herbicidal evaluation, GLXMA; conditions: three weeks after treatment
Procedure: (§2) Each pot is examined three weeks after treatment and phytotoxicity is assessed according to the rating system set forth below.
(§3) These acetone solutions are diluted with water and the resulting formulations applied at dosage levels equivalent of about 0.4 to 0.1 kg per hectare of test compound per pot. After spraying the plants are placed on greenhouse benches and are cared for in the usual manner, commensurate with conventional greenhouse practices.

Echinochloa crus-galli [5] = assay: Pre-emergence herbicidal evaluation, ECHCG; assay type: in vivo; conditions: three weeks after treatment
Source text: as §1

Galium aparine = assay: Post-emergence herbicidal evaluation, GALAP; conditions: three weeks after treatment
Amaranthus tuberculatus [6] = assay: Post-emergence herbicidal evaluation, AMATA; assay type: in vivo; conditions: three weeks after treatment
Alopecurus myosuroides [7] = assay: Post-emergence herbicidal evaluation, ALOMY; conditions: three weeks after treatment
Triticum aestivum [8] = assay: Post-emergence herbicidal evaluation, TRZAW; conditions: three weeks after treatment
Setaria viridis [9] = assay: Post-emergence herbicidal evaluation, SETVI; conditions: three weeks after treatment
Hordeum vulgare [10] = assay: Post-emergence herbicidal evaluation, HORVW; conditions: three weeks after treatment
Procedure: as §2, §3

Zea mays [11] = assay: Pre-emergence herbicidal evaluation, ZEAMX; assay type: in vivo; conditions: three weeks after treatment
Source text: as §1

Lolium perenne [12] = assay: Pre-emergence herbicidal evaluation, LOLPE; assay type: in vivo; conditions: three weeks after treatment
Source text: as §1

Echinochloa crus-galli [13] = assay: Post-emergence herbicidal evaluation, ECHCG; conditions: three weeks after treatment
Oryza sativum [14] = assay: Post-emergence herbicidal evaluation, ORYSA; conditions: three weeks after treatment
Procedure: The compounds of the invention are tested for pre- and post-emergence herbicidal activity.
as §2, §3

Amaranthus tuberculatus [15] = assay: Pre-emergence herbicidal evaluation, AMATA; assay type: in vivo; conditions: three weeks after treatment
Source text: as §1

Hordeum vulgare [16] = assay: Pre-emergence herbicidal evaluation, HORVW; assay type: in vivo; conditions: three weeks after treatment
Source text: as §1

Glycine max [17] = assay: Pre-emergence herbicidal evaluation, GLXMA; assay type: in vivo; conditions: three weeks after treatment
Source text: as §1

Oryza sativum [18] = assay: Pre-emergence herbicidal evaluation, ORYSA; assay type: in vivo; conditions: three weeks after treatment
Source text: as §1

Setaria viridis [19] = assay: Pre-emergence herbicidal evaluation, SETVI; assay type: in vivo; conditions: three weeks after treatment
Source text: as §1

Zea mays [20] = assay: Post-emergence herbicidal evaluation, ZEAMX; conditions: three weeks after treatment
Lolium perenne [21] = assay: Post-emergence herbicidal evaluation, LOLPE; conditions: three weeks after treatment
Triticum aestivum [22] = assay: Pre-emergence herbicidal evaluation, TRZAW; assay type: in vivo; conditions: three weeks after treatment
Source text: as §1

CCN(C(=O)COc1nnc(C(F)(F)C(F)(F)F)s1)C1=CC(C)(C)CC(C)=C1 [Example 8]
7 (7 - Good herbicidal effect): phytotoxicity rating SETVI (Setaria viridis [19]; 0.800 kg/ha) | phytotoxicity rating LOLPE (Lolium perenne [21]; 0.200 kg/ha)
3 (3 - Moderate effect): phytotoxicity rating GLXMA (Glycine max [4]; 0.200 kg/ha)
0 (0 - No effect): phytotoxicity rating APESV (Apera spica venti [1]; 0.100 kg/ha) | phytotoxicity rating APESV (Apera spica venti [1]; 0.200 kg/ha) | phytotoxicity rating APESV (Apera spica venti [3]; 0.100 kg/ha) | phytotoxicity rating GALAP (Galium aparine; 0.100 kg/ha) | phytotoxicity rating GALAP (Galium aparine; 0.200 kg/ha) | phytotoxicity rating AMATA (Amaranthus tuberculatus [6]; 0.100 kg/ha) | phytotoxicity rating AMATA (Amaranthus tuberculatus [6]; 0.200 kg/ha) | phytotoxicity rating AMATA (Amaranthus tuberculatus [6]; 0.400 kg/ha) | phytotoxicity rating ALOMY (Alopecurus myosuroides [7]; 0.100 kg/ha) | phytotoxicity rating TRZAW (Triticum aestivum [8]; 0.100 kg/ha) | phytotoxicity rating TRZAW (Triticum aestivum [8]; 0.200 kg/ha) | phytotoxicity rating SETVI (Setaria viridis [9]; 0.100 kg/ha) | phytotoxicity rating SETVI (Setaria viridis [9]; 0.200 kg/ha) | phytotoxicity rating SETVI (Setaria viridis [9]; 0.400 kg/ha) | phytotoxicity rating HORVW (Hordeum vulgare [10]; 0.100 kg/ha) | phytotoxicity rating HORVW (Hordeum vulgare [10]; 0.200 kg/ha) | phytotoxicity rating HORVW (Hordeum vulgare [10]; 0.400 kg/ha) | phytotoxicity rating ZEAMX (Zea mays [11]; 0.100 kg/ha) | phytotoxicity rating ZEAMX (Zea mays [11]; 0.200 kg/ha) | phytotoxicity rating ZEAMX (Zea mays [11]; 0.400 kg/ha) | phytotoxicity rating ZEAMX (Zea mays [11]; 0.800 kg/ha) | phytotoxicity rating ECHCG (Echinochloa crus-galli [13]; 0.100 kg/ha) | phytotoxicity rating ECHCG (Echinochloa crus-galli [13]; 0.200 kg/ha) | phytotoxicity rating ECHCG (Echinochloa crus-galli [13]; 0.400 kg/ha) | phytotoxicity rating ORYSA (Oryza sativum [14]; 0.100 kg/ha) | phytotoxicity rating ORYSA (Oryza sativum [14]; 0.200 kg/ha) | phytotoxicity rating AMATA (Amaranthus tuberculatus [15]; 0.100 kg/ha) | phytotoxicity rating HORVW (Hordeum vulgare [16]; 0.100 kg/ha) | phytotoxicity rating HORVW (Hordeum vulgare [16]; 0.200 kg/ha) | phytotoxicity rating GLXMA (Glycine max [17]; 0.100 kg/ha) | phytotoxicity rating GLXMA (Glycine max [17]; 0.200 kg/ha) | phytotoxicity rating GLXMA (Glycine max [17]; 0.400 kg/ha) | phytotoxicity rating GLXMA (Glycine max [17]; 0.800 kg/ha) | phytotoxicity rating ORYSA (Oryza sativum [18]; 0.100 kg/ha) | phytotoxicity rating ORYSA (Oryza sativum [18]; 0.200 kg/ha) | phytotoxicity rating ORYSA (Oryza sativum [18]; 0.400 kg/ha) | phytotoxicity rating ZEAMX (Zea mays [20]; 0.100 kg/ha) | phytotoxicity rating ZEAMX (Zea mays [20]; 0.200 kg/ha) | phytotoxicity rating ZEAMX (Zea mays [20]; 0.400 kg/ha) | phytotoxicity rating TRZAW (Triticum aestivum [22]; 0.100 kg/ha) | phytotoxicity rating TRZAW (Triticum aestivum [22]; 0.200 kg/ha) | phytotoxicity rating TRZAW (Triticum aestivum [22]; 0.400 kg/ha) | phytotoxicity rating TRZAW (Triticum aestivum [22]; 0.800 kg/ha)
55 °C: melting point
9 (9 - Complete kill): phytotoxicity rating APESV (Apera spica venti [1]; 0.800 kg/ha)
1 (1 - Trace effect): phytotoxicity rating ALOMY (Alopecurus myosuroides [2]; 0.100 kg/ha) | phytotoxicity rating ECHCG (Echinochloa crus-galli [5]; 0.100 kg/ha) | phytotoxicity rating TRZAW (Triticum aestivum [8]; 0.400 kg/ha) | phytotoxicity rating LOLPE (Lolium perenne [12]; 0.100 kg/ha) | phytotoxicity rating AMATA (Amaranthus tuberculatus [15]; 0.200 kg/ha) | phytotoxicity rating HORVW (Hordeum vulgare [16]; 0.400 kg/ha) | phytotoxicity rating ORYSA (Oryza sativum [18]; 0.800 kg/ha) | phytotoxicity rating SETVI (Setaria viridis [19]; 0.100 kg/ha) | phytotoxicity rating LOLPE (Lolium perenne [21]; 0.100 kg/ha)
8 (8 - Approaching complete kill): phytotoxicity rating APESV (Apera spica venti [1]; 0.400 kg/ha) | phytotoxicity rating ALOMY (Alopecurus myosuroides [2]; 0.800 kg/ha) | phytotoxicity rating ECHCG (Echinochloa crus-galli [5]; 0.800 kg/ha) | phytotoxicity rating LOLPE (Lolium perenne [21]; 0.400 kg/ha)
2 (2 - Slight effect): phytotoxicity rating GLXMA (Glycine max [4]; 0.100 kg/ha) | phytotoxicity rating ORYSA (Oryza sativum [14]; 0.400 kg/ha) | phytotoxicity rating HORVW (Hordeum vulgare [16]; 0.800 kg/ha)
5 (5 - Definite injury): phytotoxicity rating GALAP (Galium aparine; 0.400 kg/ha) | phytotoxicity rating AMATA (Amaranthus tuberculatus [15]; 0.400 kg/ha)
4 (4 - Injury): phytotoxicity rating ALOMY (Alopecurus myosuroides [2]; 0.200 kg/ha) | phytotoxicity rating APESV (Apera spica venti [3]; 0.200 kg/ha) | phytotoxicity rating GLXMA (Glycine max [4]; 0.400 kg/ha) | phytotoxicity rating ECHCG (Echinochloa crus-galli [5]; 0.200 kg/ha) | phytotoxicity rating ECHCG (Echinochloa crus-galli [5]; 0.400 kg/ha) | phytotoxicity rating ALOMY (Alopecurus myosuroides [7]; 0.200 kg/ha) | phytotoxicity rating ALOMY (Alopecurus myosuroides [7]; 0.400 kg/ha) | phytotoxicity rating LOLPE (Lolium perenne [12]; 0.200 kg/ha) | phytotoxicity rating SETVI (Setaria viridis [19]; 0.200 kg/ha) | phytotoxicity rating SETVI (Setaria viridis [19]; 0.400 kg/ha)
6 (6 - Herbicidal effect): phytotoxicity rating ALOMY (Alopecurus myosuroides [2]; 0.400 kg/ha) | phytotoxicity rating APESV (Apera spica venti [3]; 0.400 kg/ha) | phytotoxicity rating LOLPE (Lolium perenne [12]; 0.400 kg/ha) | phytotoxicity rating LOLPE (Lolium perenne [12]; 0.800 kg/ha) | phytotoxicity rating AMATA (Amaranthus tuberculatus [15]; 0.800 kg/ha)
